One assay concerns Zymoseptoria tritici. Nature of the assay: Leaf Blotch of Wheat fungicidal activity (SEPTTR). It is filed as in vivo. As to conditions: wheat, high volume, 100 ppm. Here is the method:
(§1) All fungicides were evaluated using the aforementioned method for their activity vs. all target diseases, unless stated otherwise. Wheat leaf blotch and brown rust activity were also evaluated using track spray applications, in which case the fungicides were formulated as EC formulations, containing 0.1% Trycol 5941 in the spray solutions. Wheat plants (variety Yuma) were grown from seed in a greenhouse in 50% mineral soil/50% soil-less Metro mix until the first leaf was fully emerged, with 7-10 seedlings per pot. These plants were inoculated with an aqueous spore suspension of Zymoseptoria tritici either prior to or after fungicide treatments. After inoculation the plants were kept in 100% relative humidity (one day in a dark dew chamber followed by two to three days in a lighted dew chamber at 20° C.) to permit spores to germinate and infect the leaf. The plants were then transferred to a greenhouse set at 20° C. for disease to develop. When disease symptoms were fully expressed on the 1st leaves of untreated plants, infection levels were assessed on a scale of 0 to 100 percent disease severity. Percent disease control was calculated using the ratio of disease severity on treated plants relative to untreated plants.

For a further assay, the system named is Puccinia triticina. The experiment in a line: Wheat Brown Rust fungicidal activity (PUCCRT). It counts as in vivo. The following applies: wheat, high volume, 100 ppm. On the procedure: as §1, with “plants. Wheat plants (variety Yuma) were grown from seed in a greenhouse in 50% mineral soil/50% soil-less Metro mix until the first leaf was fully emerged, with 7-10 seedlings per pot. These plants were inoculated with an aqueous spore suspension of Puccinia triticina either prior to or after fungicide treatments. […] The plants were then transferred to a greenhouse set at 24° C. for disease to develop. Fungicide formulation, application and disease assessment followed the procedures as described in the Example A.” for “plants.”

Setting [1] is: 24 h, 1 Day Protectant, read-out: SEPTTR 1DP % Control rating.
The mark [2] stands for this setting: 72 h, 3 Day Curative, read-out: SEPTTR 3DC % Control rating.
Where [3] appears, read: 24 h, 1 Day Protectant, read-out: PUCCRT 1DP % Control rating.
The mark [4] stands for this setting: 72 h, 3 Day Curative, read-out: PUCCRT 3DC % Control rating.

SMILES strings stand for the structures. Like-named read-outs stand apart in the source and are kept apart here.

In the case of `COc1ccnc(C(=O)N[C@@H](C)C(=O)O[C@@H](C)[C@H](OCC2CC2)c2ccccc2)c1O` [Example 113], the pest or weed control at 100 ppm with Zymoseptoria tritici (setting [1]) is more than 80%; with Zymoseptoria tritici (setting [2]), more than 80%; in the assay on Puccinia triticina (setting [3]), more than 80%; in the assay with Puccinia triticina (setting [4]), less than 80%.
As for `COc1ccnc(C(=O)N[C@@H](C)C(=O)O[C@@H](C)[C@H](Oc2ccccc2)c2ccccc2)c1O` [Example 114], the pest or weed control at 100 ppm with Zymoseptoria tritici (setting [1]), with Zymoseptoria tritici (setting [2]), with Puccinia triticina (setting [3]) and in the assay on Puccinia triticina (setting [4]) was more than 80% each time.
For `COc1ccnc(C(=O)N[C@@H](C)C(=O)O[C@H](C)[C@@H](Oc2ccccc2)c2ccccc2)c1O` [Example 115], the pest or weed control at 100 ppm in the assay on Zymoseptoria tritici (setting [1]) was less than 0%; in the assay with Zymoseptoria tritici (setting [2]), less than 80%; in the assay on Puccinia triticina (setting [3]) it was less than 0%; in the assay on Puccinia triticina (setting [4]) it was more than 80%.
For the molecule `COc1ccnc(C(=O)N[C@H](C)C(=O)O[C@H](C)[C@@H](Oc2ccccc2)c2ccccc2)c1O` [Example 116], the pest or weed control at 100 ppm in the assay with Zymoseptoria tritici (setting [1]) was less than 0%; in the assay on Zymoseptoria tritici (setting [2]), less than 80%; in the assay with Puccinia triticina (setting [3]), less than 0%; in the assay with Puccinia triticina (setting [4]), less than 0%.
For the molecule `COc1ccnc(C(=O)N[C@@H](C)C(=O)O[C@@H](C)[C@H](Oc2ccccc2Cl)c2ccccc2)c1O` [Example 117], the pest or weed control at 100 ppm in the assay on Zymoseptoria tritici (setting [1]), in the assay on Zymoseptoria tritici (setting [2]), in the assay on Puccinia triticina (setting [3]) and with Puccinia triticina (setting [4]) was more than 80% in each case.
On to `COc1ccnc(C(=O)N[C@@H](C)C(=O)O[C@@H](C)[C@H](Oc2cccc(Cl)c2)c2ccccc2)c1O` [Example 118], for which the pest or weed control at 100 ppm in the assay with Zymoseptoria tritici (setting [1]), with Zymoseptoria tritici (setting [2]), in the assay on Puccinia triticina (setting [3]) and with Puccinia triticina (setting [4]) was more than 80% each time.
Take `COc1ccnc(C(=O)N[C@@H](C)C(=O)O[C@@H](C)[C@H](Oc2ccc(Cl)cc2)c2ccccc2)c1O` [Example 119]: the pest or weed control at 100 ppm with Zymoseptoria tritici (setting [1]) is less than 80%; with Zymoseptoria tritici (setting [2]), more than 80%; in the assay on Puccinia triticina (setting [3]) it was more than 80%; in the assay with Puccinia triticina (setting [4]) it was more than 80%.
With `COc1ccnc(C(=O)N[C@@H](C)C(=O)O[C@@H](C)[C@H](Oc2ccc(Cl)cc2Cl)c2ccccc2)c1O` [Example 120], the pest or weed control at 100 ppm in the assay on Zymoseptoria tritici (setting [1]) is more than 80%; with Zymoseptoria tritici (setting [2]), less than 80%; in the assay on Puccinia triticina (setting [3]), more than 80%; in the assay on Puccinia triticina (setting [4]), less than 80%.
As for `COc1ccnc(C(=O)N[C@@H](C)C(=O)O[C@@H](C)[C@H](Oc2cc(F)ccc2F)c2ccccc2)c1O` [Example 121], the pest or weed control at 100 ppm in the assay on Zymoseptoria tritici (setting [1]) was less than 80%; with Zymoseptoria tritici (setting [2]), more than 80%; in the assay on Puccinia triticina (setting [3]) it was more than 80%; in the assay with Puccinia triticina (setting [4]), less than 80%.
In the case of `COc1ccnc(C(=O)N[C@@H](C)C(=O)O[C@@H](C)[C@H](Oc2cc(F)cc(Cl)c2)c2ccccc2)c1O` [Example 122], the pest or weed control at 100 ppm in the assay with Zymoseptoria tritici (setting [1]), in the assay on Zymoseptoria tritici (setting [2]), with Puccinia triticina (setting [3]) and in the assay with Puccinia triticina (setting [4]) was more than 80% throughout.
For the molecule `CC[C@H](NC(=O)c1nccc(OC)c1O)C(=O)O[C@@H](C)[C@H](Oc1cc(F)ccc1F)c1ccccc1` [Example 123], the pest or weed control at 100 ppm in the assay with Zymoseptoria tritici (setting [1]) is less than 80%; in the assay on Zymoseptoria tritici (setting [2]) it was less than 80%; with Puccinia triticina (setting [3]), more than 80%; in the assay with Puccinia triticina (setting [4]), less than 80%.
With `CC[C@H](NC(=O)c1nccc(OC)c1O)C(=O)O[C@@H](C)[C@H](Oc1cc(F)cc(Cl)c1)c1ccccc1` [Example 124], the pest or weed control at 100 ppm with Zymoseptoria tritici (setting [1]), in the assay with Zymoseptoria tritici (setting [2]), with Puccinia triticina (setting [3]) and with Puccinia triticina (setting [4]) was more than 80% in each case.
Consider `COc1ccnc(C(=O)N[C@@H](C)C(=O)O[C@@H](C)[C@H](Oc2ccc(C(F)(F)F)cc2)c2ccccc2)c1O` [Example 125], for which the pest or weed control at 100 ppm with Zymoseptoria tritici (setting [1]) is less than 80%; with Zymoseptoria tritici (setting [2]) it was less than 80%; in the assay with Puccinia triticina (setting [3]), less than 80%; in the assay on Puccinia triticina (setting [4]) it was less than 0%.
For the molecule `COc1ccnc(C(=O)N[C@H](C(=O)O[C@@H](C)[C@H](Oc2ccc(C(F)(F)F)cc2)c2ccccc2)C(C)C)c1O` [Example 126], the pest or weed control at 100 ppm with Zymoseptoria tritici (setting [1]) is less than 0%; with Zymoseptoria tritici (setting [2]) it was less than 80%; with Puccinia triticina (setting [3]), less than 80%; in the assay on Puccinia triticina (setting [4]), less than 0%.
Regarding `COc1ccnc(C(=O)N[C@@H](C)C(=O)O[C@@H](C)[C@H](Oc2cccc(F)c2)c2ccccc2)c1O` [Example 127], the pest or weed control at 100 ppm in the assay with Zymoseptoria tritici (setting [1]), in the assay with Zymoseptoria tritici (setting [2]), with Puccinia triticina (setting [3]) and in the assay with Puccinia triticina (setting [4]) was more than 80% in each case.
In the case of `COc1ccnc(C(=O)N[C@@H](Cc2ccccc2)C(=O)O[C@@H](C)[C@H](Oc2cccc(F)c2)c2ccccc2)c1O` [Example 128], the pest or weed control at 100 ppm in the assay on Zymoseptoria tritici (setting [1]) was less than 0%; in the assay on Zymoseptoria tritici (setting [2]), less than 80%; with Puccinia triticina (setting [3]) it was more than 80%; with Puccinia triticina (setting [4]), less than 80%.
For `COc1ccnc(C(=O)N[C@@H](C)C(=O)O[C@@H](C)[C@@H](Oc2ccccc2)c2cccs2)c1O` [Example 129], the pest or weed control at 100 ppm in the assay on Zymoseptoria tritici (setting [1]) was more than 80%; with Zymoseptoria tritici (setting [2]) it was less than 80%; in the assay with Puccinia triticina (setting [3]) it was less than 80%; with Puccinia triticina (setting [4]) it was less than 80%.
With `COc1ccnc(C(=O)N[C@@H](C)C(=O)O[C@@H](C)[C@H](OCC2CC2)c2cccc(-c3ccccc3)c2)c1O` [Example 131], the pest or weed control at 100 ppm was less than 0% with Zymoseptoria tritici (setting [1]), less than 80% in the assay with Zymoseptoria tritici (setting [2]), less than 80% in the assay with Puccinia triticina (setting [3]) and less than 80% in the assay with Puccinia triticina (setting [4]).
As to `COc1ccnc(C(=O)N[C@@H](C)C(=O)O[C@@H](C)[C@H](Oc2ccccc2)c2nccs2)c1O` [Example 132], the pest or weed control at 100 ppm in the assay on Zymoseptoria tritici (setting [1]) was less than 80%; with Zymoseptoria tritici (setting [2]), less than 0%; in the assay on Puccinia triticina (setting [3]), more than 80%; with Puccinia triticina (setting [4]) it was less than 80%.
As to `COc1ccnc(C(=O)N[C@@H](C)C(=O)O[C@@H](C)[C@H](Oc2cccc(F)c2)c2cccc(-c3ccccc3)c2)c1O` [Example 133], the pest or weed control at 100 ppm in the assay on Zymoseptoria tritici (setting [1]) is less than 0%; in the assay with Zymoseptoria tritici (setting [2]) it was less than 0%; in the assay with Puccinia triticina (setting [3]), less than 80%; in the assay with Puccinia triticina (setting [4]), less than 0%.
As for `COc1ccnc(C(=O)N[C@@H](C)C(=O)O[C@@H](C)[C@@H](Oc2ccc(Cl)cc2Cl)c2ccccc2)c1O` [Example 134], the pest or weed control at 100 ppm in the assay on Zymoseptoria tritici (setting [1]) is more than 80%; in the assay with Zymoseptoria tritici (setting [2]), less than 80%; in the assay with Puccinia triticina (setting [3]), more than 80%; in the assay on Puccinia triticina (setting [4]), more than 80%.
For the molecule `COc1ccnc(C(=O)N[C@@H](C)C(=O)O[C@@H](C)[C@@H](Oc2ccccc2)c2ccccc2)c1O` [Example 135], the pest or weed control at 100 ppm was more than 80% with Zymoseptoria tritici (setting [1]), more than 80% in the assay on Zymoseptoria tritici (setting [2]), more than 80% in the assay on Puccinia triticina (setting [3]) and less than 0% in the assay on Puccinia triticina (setting [4]).
`COc1ccnc(C(=O)N[C@@H](C)C(=O)O[C@@H](C)[C@@H](OCC(C)C)c2ccccc2)c1O` [Example 136]: the pest or weed control at 100 ppm in the assay with Zymoseptoria tritici (setting [1]) was less than 80%; with Zymoseptoria tritici (setting [2]), less than 0%; in the assay with Puccinia triticina (setting [3]), less than 0%; in the assay on Puccinia triticina (setting [4]), less than 80%.
Consider `CCCO[C@H](c1ccccc1)[C@H](C)OC(=O)[C@H](C)NC(=O)c1nccc(OC)c1O` [Example 137], for which the pest or weed control at 100 ppm with Zymoseptoria tritici (setting [1]), in the assay on Zymoseptoria tritici (setting [2]), with Puccinia triticina (setting [3]) and in the assay with Puccinia triticina (setting [4]) was more than 80% throughout.
On to `CCCO[C@@H](c1ccccc1)[C@H](C)OC(=O)[C@H](C)NC(=O)c1nccc(OC)c1O` [Example 138], for which the pest or weed control at 100 ppm in the assay with Zymoseptoria tritici (setting [1]) was less than 80%; with Zymoseptoria tritici (setting [2]) it was less than 80%; in the assay on Puccinia triticina (setting [3]), more than 80%; in the assay with Puccinia triticina (setting [4]), more than 80%.

Source of the values: US20180002288A1, “USE OF PICOLINAMIDES AS FUNGICIDES” (DOW AGROSCIENCES LLC, priority 2014, published 2018).
